This is an account of results in patent publication US20160115186A1, “PHOSPHORIC ACID/PHOSPHONIC ACID DERIVATIVES AND MEDICINAL USES THEREOF” (priority 2013, published 2016).

Where two headings read alike, the source gives them in different places. Bounds are passed on as bounds.

Series [1] has as its system HBV. Put plainly: microbe, parasite or virus in culture. Type of series: cell-based. Here is the method:
At day 10 post-dosing, 100 μl supernate was taken and the content of HBV DNA was measured by the method of Quantitative PCR to calculate IC50 value.

Series [2] is described as follows: in vitro. As to conditions: human; Hep G 2.2.15 cells, MTT, day 3 post-dosing. Format: cell-based. The procedure: Hep G 2.2.15 cells were inoculated in a 96-well plate (with cell number being 5.5×10^4) to continually cultivate for 3 days, new culture solutions containing different concentrations of drugs were added, and 3 wells were provided in parallel; at day 3 post-dosing, MTT was added until 7.5 mg/ml, and continued to cultivate for 2 hours, the supernate was discarded, isopropanol containing 10% […] was added, 120 μl/well, and 0.4 μl/well was further added.

For series [3], the system named is liver damage in mice caused by D-aminogalactose. Type of series: in vivo, Kunmin mice. As to conditions: serum, D-aminogalactose 750 mg/kg model, 0.2 mmol oral twice, 24 hours after second administration. The procedure: Kunmin mice (20 g) were grouped randomly (8/group). 0.2 mmol of a compound to be tested was orally administered; after 2 hours post-dosing, D-aminogalactose was intraperitoneally injected at a dose of 750 mg/kg to prepare a liver damage model, and the normal saline was subcutaneously injected as a normal control group. After modeling for 12 hours, 0.2 mmol of the compound to be tested was orally administrated again. After 24 hours from the second administration, blood samples were collected to take serum specimen so as to determine ALT, AST.

The subject of series [4] is liver damage in mice caused by CCl4. Type of series: in vivo, Kunmin mice. As to conditions: serum, CCl4 model, 0.2 mmol oral twice, 24 hours after second administration. The procedure: Kunmin mice (20 g) were grouped randomly (8/group). 0.2 mmol of a compound to be tested was orally administered; after 1 hour post-dosing, a 0.1% peanut oil solution of CCl4 was subcutaneously injected (10 mL/kg), to prepare a liver damage model; the normal saline was injected as a normal control group. After modeling for 12 hours, 0.2 mmol of the compound to be tested was orally administrated again. After 24 hours from the second administration, blood samples were collected to take serum specimen so as to determine ALT, AST.

The subject of series [5] is DHBV. Put plainly: animal or person. Format: in vivo, sheldrakes. The settings on record: Duck hepatitis B virus, po, 336 h; for inhibition in vivo at 0.5 mg/kg / inhibition in vivo at 10 mg/kg: serum DHBV DNA; for inhibition in vivo at 0.5 mg/kg: 0.5 mg/kg intragastric once a day for 14 days; for inhibition in vivo at 10 mg/kg: 10 mg/kg intragastric once a day for 14 days. Here is the method: The sheldrakes infected by vertical transmission and being positive in DHBV DNA detection were grouped randomly, 5/group. Water and different doses of the compound to be tested were intragastrically administrated, respectively, once a day, for 14 days. Venous blood samples were collected pre-dosing, at day 14 of dosing and at day 7 after drug withdrawal, the serum DHBV DNA content was measured using external standard TaqMan real-time fluorescence PCR method, and the inhibition ratio was calculated, as compared to the solvent group.

The mark [6] stands for this setting: Hepatitis B virus, HepG2.2.15, 240 h.
Where [7] appears, read: Hepatitis B virus, HepG2.2.15, 240 h, Hep G 2.2.15 cells, HBV DNA in supernate at day 10 post-dosing, read-out: IC50.
[8] abbreviates: read-out: Inhibition ratio (%) Day 14 of dosing.
[9] abbreviates: read-out: Inhibition ratio (%) day 7 after drug withdrawal.

Consider `COc1nc(N)nc2c1ncn2COCCOP(=O)(Oc1ccc2c(c1)OCO2)Oc1ccc2c(c1)OCO2` [Compound I13, 2-amino-6-methoxyl-9-[[[bis-((benzo[1,3]dioxolan-5-yl)-oxyl)-phosphoryloxyl]-ethoxyl]-methyl]-purine], for which, in series [1] (setting [6]), the midpoint of inhibition, the IC50, lay at 0.29 µM. Besides, in series [2], the CC50 (in general, the concentration that lowers cell viability or growth by half) at 3 days is above 200 µM.
With `CC(C)OC(=O)[C@H](NP(=O)(CO[C@H](C)Cn1cnc2c(N)ncnc21)Oc1ccc2c(c1)OCO2)C(C)C` (stereo partly drawn) [Compound I22], the concentration for half-maximal inhibition (IC50) – broadly, the concentration at which inhibition is half-maximal – in series [1] (setting [6]) was 0.17 µM. This compound returned a CC50 at 3 days in series [2] above 200 µM.
For `Nc1ncnc2c1ncn2CCOCP(=O)(Oc1ccc2c(c1)OCCO2)Oc1ccc2c(c1)OCCO2` [Compound I4, 9-[[[bis-((benzo[1,4]dioxan-6-yl)-oxyl)-phosphonyl]-methoxyl]-ethyl]-adenine] the same measures were 3.19 µM and above 200 µM.
Regarding `Nc1ncnc2c1ncn2CCOCP(=O)(Oc1ccc2c(c1)OCO2)Oc1ccc2c(c1)OCO2` [Compound I2, 9-[[[bis-((benzo[1,3]dioxolan-5-yl)-oxyl)-phosphonyl]-methoxyl]-ethyl]-adenine], in series [3], the ALT is listed as 514 U/L and the AST is listed as 560 U/L. Besides, in series [1] (setting [6]), inhibition was half-maximal at 0.47 µM (IC50). In series [2], this compound returned a CC50 at 3 days above 200 µM. Further, in series [4], the ALT is reported as 435 U/L and the AST worked out at 764 U/L.
Regarding `C=C1[C@H](CO[P@@](=O)(N[C@@H](C)C(=O)OC(C)C)Oc2ccc3c(c2)OCO3)[C@@H](O)C[C@@H]1n1cnc2c(=O)[nH]c(N)nc21` [Compound I38-b], the ALT in series [3] is 217 U/L; in series [4], 162 U/L. The values for the AST in series [3] and in series [4] were 493 U/L and 387 U/L, respectively. Also, the IC50 in series [1] (setting [7]) was 0.09 µM. Moreover, in series [2], the 50% cytotoxic concentration (CC50) was above 200 µM. Besides, the inhibition in vivo at 0.5 mg/kg was determined as 96.4% in series [5] (setting [8]) and 63.4% in series [5] (setting [9]).
Turning to `COC(=O)[C@@H](C)NP(=O)(CO[C@H](C)Cn1cnc2c(N)ncnc21)Oc1ccc2c(c1)OCO2` (stereo partly drawn) [Compound I19], in series [1] (setting [6]), the IC50 came out at 0.008 µM. The compound also gave a half-maximal cytotoxic concentration (CC50) at 3 days in series [2] of 146 µM.
For `Nc1nc2c(ncn2COCCOP(=O)(Oc2cccc3c2OCO3)Oc2cccc3c2OCO3)c(=O)[nH]1` [Compound I11, 9-[[[bis-((benzo[1,3]dioxolan-4-yl)-oxyl)-phosphoryloxyl]-ethoxyl]-methyl]-guanine] the same measures were 1.66 µM and above 200 µM.
In the case of `Nc1ncnc2c1ncn2CCOCP(=O)(Oc1cccc2c1OCO2)Oc1cccc2c1OCO2` [Compound I1, 9-[[[bis-((benzo[1,3]dioxolan-4-yl)-oxyl)-phosphonyl]-methoxyl]-ethyl]-adenine], the ALT in series [3] came out at 679 U/L; in series [4], 328 U/L. The AST in series [3] came to 796 U/L; in series [4] it was 433 U/L. Moreover, in series [1] (setting [6]), the IC50 amounted to 8.05 µM. The CC50 at 3 days in series [2] was above 200 µM.
As for `C=C1[C@H](CO[P@@](=O)(N[C@@H](C)C(=O)OC(C)C)Oc2cccc3c2OCO3)[C@@H](O)C[C@@H]1n1cnc2c(=O)[nH]c(N)nc21` [Compound I39-b], the IC50 in series [1] (setting [7]) was 0.065 µM.
`CC(C)OC(=O)[C@@H](C)NP(=O)(CO[C@H](C)Cn1cnc2c(N)ncnc21)Oc1cccc2c1OCO2` (stereo partly drawn) [Compound I24] had an IC50 in series [1] (setting [6]) of 4.6 µM. The same compound registered a CC50 at 3 days in series [2] above 200 µM.
In series [3], `Nc1ncnc2c1ncn2CCOCP(=O)(Oc1ccccc1)Oc1ccccc1` [i-1, 9-[[bis-(phenoxyl)-phosphonyl-methoxyl]-ethyl]-adenine, reference compound] had an ALT of 1227 U/L and an AST of 1456 U/L. In addition, the IC50 in series [1] (Hep G 2.2.15 cells, HBV DNA in supernate at day 10 post-dosing, read-out: IC50) came to 11.3 µM. In addition, in series [4], the ALT is 2930 U/L and the AST stood at 2943 U/L.
With `COc1nc(N)nc2c1ncn2COCCOP(=O)(N[C@H](C)C(=O)OC(C)C)Oc1ccc2c(c1)OCO2` (stereo partly drawn) [Compound I29], the ALT in series [3] was 301 U/L; in series [4], 307 U/L. The values for the AST in series [3] and in series [4] were 510 U/L and 561 U/L, respectively. Besides, the IC50 in series [1] (setting [7]) worked out at 0.14 µM. In addition, in series [2], the CC50 was above 200 µM. Moreover, the inhibition in vivo at 10 mg/kg in series [5] (setting [8]) amounted to 90.8%; in series [5] (setting [9]), 17.1%.
Consider `Nc1ncnc2c1ncn2CCOCP(=O)(Oc1cccc2c1OCCO2)Oc1cccc2c1OCCO2` [Compound I3, 9-[[[bis-((benzo[1,4]dioxan-5-yl)-oxyl)-phosphonyl]-methoxyl]-ethyl]-adenine], for which inhibition in series [1] (setting [6]) was half-maximal at 6.07 µM (IC50). Also, the CC50 at 3 days in series [2] is above 200 µM.
Turning to `Nc1ncnc2c1ncn2CCOCP(=O)(Oc1cccc2ccccc12)Oc1cccc2ccccc12` [i-2, 9-[[bis-(naphthoxy)-phosphonyl-methoxyl]-ethyl]-adenine, reference compound], in series [3], the ALT is listed as 1374 U/L and the AST is on record as 1812 U/L. The same compound yielded an IC50 in series [1] (setting [6]) of 1.92 µM. In addition, in series [2], it took 152 µM to reach half-maximal cytotoxicity (CC50 at 3 days). In series [4], the ALT amounted to 3482 U/L and the AST is listed as 3660 U/L.
In the case of `C[C@H](Cn1cnc2c(N)ncnc21)OCP(=O)(Oc1ccc2c(c1)OCO2)Oc1ccc2c(c1)OCO2` [Compound I6, 9-[(R)-2-[[bis-((benzo[1,3]dioxolan-5-yl)-oxyl)-phosphonyl]-methoxyl]-propyl]-adenine], half-maximal inhibition in series [1] (setting [6]) (IC50) required 0.41 µM. In series [2], this compound returned a CC50 at 3 days above 200 µM.
`C=C1[C@H](CO[P@](=O)(N[C@@H](C)C(=O)OC(C)C)Oc2cccc3c2OCO3)[C@@H](O)C[C@@H]1n1cnc2c(=O)[nH]c(N)nc21` [Compound I39-a]: the IC50 in series [1] (setting [7]) is 0.017 µM.
On to `Nc1nc2c(ncn2COCCO)c(=O)[nH]1` [Acyclovir, acyclovir, reference compound], for which the IC50 in series [1] (setting [7]) came to 25.6 µM. The figures for the inhibition in vivo at 20 mg/kg in series [5] (setting [8]) and in series [5] (setting [9]) were 12.5% and 2.64%, respectively.
`Nc1ccn(C2CSC(COP(=O)(Oc3ccc4c(c3)OCO4)Oc3ccc4c(c3)OCO4)O2)c(=O)n1` (stereo not drawn) [Compound I14, 5′-bis-[((benzo[1,3]dioxolan-5-yl)-oxyl)-phosphoryl]-2′,3′-dideoxy-3′-thia-cytidine] gave an IC50 in series [1] (setting [6]) of 5.28 µM. The compound also gave a half-maximal cytotoxic concentration (CC50) at 3 days in series [2] above 200 µM.
For the compound `Nc1ccn([C@@H]2CS[C@H](CO)O2)c(=O)n1` [Lamivudine, lamivudine, reference compound], in series [1] (setting [7]), the IC50 is 0.075 µM. The inhibition in vivo at 20 mg/kg stood at 76.1% in series [5] (setting [8]) and 2.35% in series [5] (setting [9]).
`C=C1[C@H](COP(=O)(Oc2ccc3c(c2)OCO3)Oc2ccc3c(c2)OCO3)[C@@H](O)C[C@@H]1n1cnc2c(=O)[nH]c(N)nc21` [Compound I15, 9-[(1S,3R,4S)-4-hydroxyl-3-(bis-(((benzo[1,3]dioxolan-5-yl)-oxyl)-phosphoryl)-oxymethyl)-2-methylenecyclopentyl]-guanine]: the half-maximal inhibitory concentration (IC50) in series [1] (setting [6]) turned out to be 0.12 µM. Also, in series [2], the 50% cytotoxic concentration (CC50) at 3 days was above 200 µM.
In series [1] (setting [6]), `Nc1nc2c(ncn2COCCOP(=O)(Oc2ccc3c(c2)OCO3)Oc2ccc3c(c2)OCO3)c(=O)[nH]1` [Compound I12, 9-[[[bis-((benzo[1,3]dioxolan-5-yl)-oxyl)-phosphoryloxyl]-ethoxyl]-methyl]-guanine] gave an IC50 of 0.24 µM. The compound also yielded a CC50 at 3 days in series [2] above 200 µM.
